Data as given in ChEMBL document CHEMBL1201862, “PubChem BioAssay data set” (2004).
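Interpolation was linear, between the two tested concentrations surrounding the appropriate level; five concentrations were tested over 48 hours in 96-well plates. GI50: concentration for 50% inhibition of growth.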 Calls of active or inactive are those of the source. No stated cut-off is given here; in the data, active = GI50 up to about 1.1 µM and inactive = higher.

Assays:
Test in all cases: DTP human tumour cell line panel, 48 h
Malme-3M = system: Malme-3M
HT-29 = system: HT-29
HL-60 = system: HL-60
SF-295 = system: SF-295
CAKI-1 = system: CAKI-1
HOP-62 = system: HOP-62
OVCAR-8 = system: OVCAR-8
OVCAR-5 = system: OVCAR-5
SW-620 = system: SW-620
UO-31 = system: UO-31
NCI-H460 = system: NCI-H460
COLO 205 = system: COLO 205
786-0 = system: 786-0
M14 = system: M14
SK-MEL-2 = system: SK-MEL-2
CCRF-CEM = system: CCRF-CEM
Hs-578T = system: Hs-578T
DU-145 = system: DU-145
MDA-MB-231 = system: MDA-MB-231

Measured: GI50

CCCCN(CCCC)CC(C(=O)Nc1ccccc1)/C(C)=N\NC(=O)c1ccncc1 (stereo not drawn)
inactive: Malme-3M > 100 µM | HT-29 > 100 µM | HL-60 98.2 µM | SF-295 > 100 µM | CAKI-1 > 100 µM | HOP-62 > 100 µM | OVCAR-8 > 100 µM | OVCAR-5 > 100 µM | SW-620 > 100 µM | UO-31 28.5 µM | NCI-H460 46 µM | COLO 205 > 100 µM | 786-0 > 100 µM | M14 > 100 µM

CCOC(=O)c1ncn2c1[nH]c(=O)c1ccccc12
inactive: Malme-3M > 100 µM | HT-29 > 100 µM | HL-60 > 10 µM | SK-MEL-2 > 100 µM | SF-295 > 100 µM | OVCAR-8 > 100 µM | OVCAR-5 > 100 µM | SW-620 > 100 µM | UO-31 > 100 µM | CCRF-CEM > 100 µM | NCI-H460 > 100 µM | COLO 205 > 100 µM | 786-0 > 100 µM | M14 > 100 µM

COc1ccc(C(=O)/C=C/c2ccc(OCCCOc3ccc(/C=C/C(=O)c4ccc(OC)c(OC)c4)cc3)cc2)cc1OC
inactive: Hs-578T > 100 µM | HT-29 > 100 µM | HL-60 > 100 µM | SK-MEL-2 > 100 µM | SF-295 > 100 µM | DU-145 > 100 µM | CAKI-1 > 100 µM | HOP-62 > 100 µM | MDA-MB-231 > 100 µM | OVCAR-8 > 100 µM | SW-620 > 100 µM | UO-31 > 100 µM | CCRF-CEM > 100 µM | NCI-H460 > 100 µM | COLO 205 > 100 µM | 786-0 > 100 µM | M14 > 100 µM

CC(Oc1cc2oc(=O)cc(-c3ccccc3)c2cc1Cl)C(=O)O (stereo not drawn)
inactive: Malme-3M > 100 µM | HT-29 > 100 µM | HL-60 > 100 µM | SF-295 > 100 µM | CAKI-1 > 100 µM | HOP-62 > 100 µM | OVCAR-8 > 100 µM | SW-620 > 100 µM | UO-31 > 100 µM | CCRF-CEM > 100 µM | NCI-H460 > 100 µM | COLO 205 > 100 µM | 786-0 > 100 µM | M14 > 100 µM

CCOC(=O)c1cc2c(cn1)[nH]c1cccc(N)c12
inactive: Malme-3M > 100 µM | HT-29 > 100 µM | HL-60 14.6 µM | SF-295 > 100 µM | CAKI-1 > 100 µM | HOP-62 > 100 µM | OVCAR-8 > 100 µM | OVCAR-5 > 100 µM | SW-620 > 100 µM | UO-31 > 100 µM | CCRF-CEM > 100 µM | NCI-H460 > 100 µM | COLO 205 > 100 µM | 786-0 > 100 µM | M14 > 100 µM

C=CCN(N=O)C(=O)NCCCC(NC(C)=O)C(=O)NCc1ccccc1 (stereo not drawn)
inactive: Malme-3M > 100 µM | HT-29 > 100 µM | HL-60 > 100 µM | SK-MEL-2 > 100 µM | SF-295 > 100 µM | CAKI-1 > 100 µM | HOP-62 > 100 µM | OVCAR-8 > 100 µM | OVCAR-5 > 100 µM | SW-620 > 100 µM | UO-31 > 100 µM | CCRF-CEM > 100 µM | NCI-H460 > 100 µM | COLO 205 > 100 µM | 786-0 > 100 µM | M14 > 100 µM

CC(C)(C)C(=O)Cc1cc2c(cc1C(=O)O)S(=O)(=O)NC(C(C)(C)C)=C2
inactive: Malme-3M > 100 µM | HT-29 > 100 µM | HL-60 > 100 µM | SK-MEL-2 > 100 µM | SF-295 > 100 µM | CAKI-1 > 100 µM | HOP-62 > 100 µM | OVCAR-8 > 100 µM | OVCAR-5 > 100 µM | SW-620 > 100 µM | UO-31 > 100 µM | CCRF-CEM > 100 µM | NCI-H460 > 100 µM | COLO 205 > 100 µM | 786-0 > 100 µM | M14 > 100 µM

O=c1[nH]c2cccccc-2c1-c1nc2ccccc2[nH]1
inactive: Malme-3M 21.3 µM | HT-29 52.2 µM | HL-60 36.6 µM | SK-MEL-2 24.3 µM | SF-295 30.5 µM | CAKI-1 20.4 µM | HOP-62 39.8 µM | OVCAR-8 26.5 µM | OVCAR-5 > 100 µM | SW-620 69.5 µM | UO-31 31.1 µM | CCRF-CEM 25.5 µM | NCI-H460 7.01 µM | COLO 205 > 100 µM | 786-0 18.2 µM | M14 44.3 µM

O=C(O)C12C=CC(C1)c1ccccc12 (stereo not drawn)
inactive: Malme-3M > 100 µM | HT-29 > 100 µM | HL-60 > 100 µM | SF-295 > 100 µM | CAKI-1 > 100 µM | HOP-62 > 100 µM | OVCAR-8 > 100 µM | OVCAR-5 > 100 µM | SW-620 > 100 µM | UO-31 > 100 µM | CCRF-CEM > 100 µM | NCI-H460 > 100 µM | COLO 205 > 100 µM | 786-0 > 100 µM | M14 > 100 µM

Cc1ccc(NC(=O)CCC(=O)C2CC(=O)CC/C2=N\NC(=O)c2cc3ccccc3cc2O)cc1C (stereo not drawn)
inactive: Malme-3M 30.4 µM | HT-29 38.5 µM | HL-60 4.35 µM | SK-MEL-2 26.4 µM | SF-295 32.1 µM | CAKI-1 19 µM | HOP-62 43.4 µM | OVCAR-8 24.7 µM | OVCAR-5 22 µM | SW-620 25.6 µM | UO-31 4.13 µM | CCRF-CEM 11.5 µM | NCI-H460 25.2 µM | COLO 205 16.9 µM | 786-0 25.8 µM | M14 25.8 µM

CCCCn1c(-c2ccccc2)cs/c1=N\N=C1C=C(C(C)(C)C)C(=O)C(C(C)(C)C)=C1
inactive: Malme-3M > 100 µM | HT-29 > 100 µM | HL-60 > 100 µM | SK-MEL-2 > 100 µM | SF-295 > 100 µM | CAKI-1 > 100 µM | HOP-62 > 100 µM | OVCAR-8 > 100 µM | OVCAR-5 > 100 µM | SW-620 > 100 µM | UO-31 > 100 µM | CCRF-CEM > 100 µM | NCI-H460 > 100 µM | COLO 205 > 100 µM | 786-0 > 100 µM | M14 > 100 µM

O=C(CSc1nc2ccc(I)cc2c(=O)n1Cc1ccccc1)NN1C(=O)CCC1=O
inactive: HT-29 48.6 µM | HL-60 28.6 µM | SK-MEL-2 47 µM | SF-295 37.9 µM | DU-145 > 100 µM | CAKI-1 1.65 µM | HOP-62 54.5 µM | MDA-MB-231 32.4 µM | OVCAR-8 37.6 µM | OVCAR-5 > 100 µM | SW-620 75.2 µM | CCRF-CEM 34.5 µM | NCI-H460 63.8 µM | COLO 205 34 µM | 786-0 52.7 µM | M14 79.8 µM

COc1ccc(C2S/C(=C\c3cc(OC)c(OC)c(OC)c3)C(=O)N2NC(=O)Cc2ccccc2)cc1 (stereo not drawn)
inactive: Malme-3M > 100 µM | HT-29 > 100 µM | HL-60 > 100 µM | SK-MEL-2 > 100 µM | SF-295 > 100 µM | CAKI-1 > 100 µM | HOP-62 > 100 µM | OVCAR-8 > 100 µM | OVCAR-5 > 100 µM | SW-620 > 100 µM | UO-31 48 µM | CCRF-CEM > 100 µM | NCI-H460 > 100 µM | COLO 205 > 100 µM | 786-0 > 100 µM | M14 > 100 µM

CCOC(=O)NC(=O)c1cn(CCN2CCN(C(=O)NCCCCCCNC(=O)N3CCN(CCn4cc(C(=O)NC(=O)OCC)c(=O)[nH]c4=O)CC3)CC2)c(=O)[nH]c1=O
inactive: Malme-3M > 100 µM | HT-29 > 100 µM | HL-60 > 100 µM | SK-MEL-2 > 100 µM | SF-295 > 100 µM | HOP-62 > 100 µM | OVCAR-8 > 100 µM | OVCAR-5 > 100 µM | SW-620 > 100 µM | UO-31 > 100 µM | NCI-H460 > 100 µM | COLO 205 > 100 µM | 786-0 > 100 µM | M14 > 100 µM

COC(=O)C(CC(C)=O)CS(=O)(=O)CC(=O)C(=O)Nc1cccc([N+](=O)[O-])c1 (stereo not drawn)
inactive: Malme-3M > 100 µM | SK-MEL-2 > 100 µM | CAKI-1 > 100 µM | HOP-62 > 100 µM | OVCAR-8 > 100 µM | OVCAR-5 > 100 µM | SW-620 > 100 µM | UO-31 > 100 µM | CCRF-CEM > 100 µM | NCI-H460 > 100 µM | COLO 205 > 100 µM | 786-0 > 100 µM | M14 > 100 µM

COC(=O)c1cc(C)n(NC(=O)OC(C)(C)C)c1C
inactive: Malme-3M > 100 µM | HT-29 > 100 µM | HL-60 > 100 µM | SK-MEL-2 > 100 µM | SF-295 > 100 µM | CAKI-1 > 100 µM | HOP-62 > 100 µM | OVCAR-8 > 100 µM | OVCAR-5 > 100 µM | SW-620 > 100 µM | UO-31 > 100 µM | CCRF-CEM > 100 µM | NCI-H460 > 100 µM | COLO 205 > 100 µM | 786-0 > 100 µM | M14 > 100 µM

Nc1ccn(CCOC(c2ccccc2)P(=O)(O)O)c(=O)n1 (stereo not drawn)
inactive: Malme-3M > 100 µM | HT-29 > 100 µM | HL-60 > 100 µM | SK-MEL-2 > 100 µM | SF-295 > 100 µM | CAKI-1 > 100 µM | OVCAR-8 > 100 µM | OVCAR-5 > 100 µM | SW-620 > 100 µM | UO-31 > 100 µM | CCRF-CEM > 100 µM | NCI-H460 > 100 µM | COLO 205 > 100 µM | 786-0 > 100 µM
